In brackets after ≈: the same amount, converted by molar mass.
Legend:
Acinetobacter baumannii = experiment: Antibacterial activity against Acinetobacter baumannii ATCC 17978 assessed as inhibition of bacterial growth by broth microdilution method; format: functional
Staphylococcus aureus [1] = experiment: Antibacterial against methicillin resistant Staphylococcus aureus ATCC 43300 assessed as inhibition of bacterial growth by broth microdilution method; format: functional; conditions: time 24 hrs
Staphylococcus aureus [2] = experiment: Antibacterial against vancomycin-intermediate Staphylococcus aureus ATCC 700699 assessed as inhibition of bacterial growth by broth dilution method; format: functional
Klebsiella pneumoniae = experiment: Antibacterial activity against Klebsiella pneumoniae ATCC 10031 assessed as inhibition of bacterial growth by broth microdilution method; format: functional
Enterococcus faecium = experiment: Antibacterial activity against vancomycin-resistant Enterococcus faecium ATCC 700221 assessed as inhibition of bacterial growth by broth microdilution method; format: functional
Escherichia coli [3] = experiment: Antibacterial activity against Escherichia coli ATCC 25922 assessed as inhibition of bacterial growth by broth microdilution method; format: functional
[4] = target: DNA topoisomerase 2-alpha (Homo sapiens, UniProt P11388); experiment: Inhibition of human DNA topoisomerase 2-alpha using linear pBR322 as substrate assessed as conversion of NADH to NAD+ by measuring residual activity at 100 uM preincubated for 10 to 15 mins in presence of pyruvate kinase/lactate dehydrogenase mix followed by ATP addition and measured after 30 mins by ATPase assay relative to control; conditions: time 40-55 min
Chain of DNA topoisomerase 2-alpha (P11388 whole entry): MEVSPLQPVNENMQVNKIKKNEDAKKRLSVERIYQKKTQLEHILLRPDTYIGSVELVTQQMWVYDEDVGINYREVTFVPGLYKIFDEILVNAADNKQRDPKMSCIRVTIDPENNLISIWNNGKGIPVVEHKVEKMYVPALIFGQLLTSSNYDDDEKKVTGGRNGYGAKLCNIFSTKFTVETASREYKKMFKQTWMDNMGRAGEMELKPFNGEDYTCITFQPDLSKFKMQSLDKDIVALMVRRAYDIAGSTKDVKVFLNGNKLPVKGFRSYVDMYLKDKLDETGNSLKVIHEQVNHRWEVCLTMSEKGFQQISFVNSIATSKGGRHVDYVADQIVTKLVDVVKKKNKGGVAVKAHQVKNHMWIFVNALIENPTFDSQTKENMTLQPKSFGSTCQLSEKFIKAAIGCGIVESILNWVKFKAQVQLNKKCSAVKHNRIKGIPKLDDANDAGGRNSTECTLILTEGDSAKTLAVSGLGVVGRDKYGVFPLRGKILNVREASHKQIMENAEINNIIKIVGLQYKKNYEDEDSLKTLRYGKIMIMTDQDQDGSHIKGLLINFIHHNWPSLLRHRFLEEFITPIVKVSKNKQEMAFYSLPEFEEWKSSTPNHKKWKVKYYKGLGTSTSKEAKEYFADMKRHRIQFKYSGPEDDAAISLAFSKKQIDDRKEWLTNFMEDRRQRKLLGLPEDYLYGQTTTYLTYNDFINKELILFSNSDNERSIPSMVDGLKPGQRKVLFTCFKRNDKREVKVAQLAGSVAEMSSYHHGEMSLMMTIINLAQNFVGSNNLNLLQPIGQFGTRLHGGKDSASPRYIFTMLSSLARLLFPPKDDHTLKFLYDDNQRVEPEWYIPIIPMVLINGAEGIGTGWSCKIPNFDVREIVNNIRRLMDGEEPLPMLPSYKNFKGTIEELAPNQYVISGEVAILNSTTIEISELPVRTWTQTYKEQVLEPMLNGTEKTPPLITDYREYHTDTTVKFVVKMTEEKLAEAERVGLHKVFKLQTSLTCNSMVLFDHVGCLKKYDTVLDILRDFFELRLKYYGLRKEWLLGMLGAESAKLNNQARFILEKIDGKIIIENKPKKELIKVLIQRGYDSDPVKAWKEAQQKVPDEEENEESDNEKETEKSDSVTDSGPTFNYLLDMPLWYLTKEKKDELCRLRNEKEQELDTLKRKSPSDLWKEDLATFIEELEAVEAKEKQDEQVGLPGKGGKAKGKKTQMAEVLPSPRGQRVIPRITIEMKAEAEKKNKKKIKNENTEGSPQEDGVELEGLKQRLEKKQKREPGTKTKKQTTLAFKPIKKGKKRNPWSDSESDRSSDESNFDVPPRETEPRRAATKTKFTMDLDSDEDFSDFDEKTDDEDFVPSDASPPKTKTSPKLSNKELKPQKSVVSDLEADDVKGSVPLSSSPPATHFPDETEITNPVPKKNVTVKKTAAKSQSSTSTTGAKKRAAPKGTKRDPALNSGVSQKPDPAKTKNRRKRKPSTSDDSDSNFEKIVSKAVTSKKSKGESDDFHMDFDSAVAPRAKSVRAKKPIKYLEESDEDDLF

DNA gyrase [5] = target: DNA gyrase (Staphylococcus aureus, UniProt P0A0K8+P20831); experiment: Inhibition of Staphylococcus aureus DNA gyrase by supercoiling plate assay; format: protein-complex assay
Chain of DNA gyrase (Staphylococcus aureus, UniProt P0A0K8+P20831) (P0A0K8 whole entry): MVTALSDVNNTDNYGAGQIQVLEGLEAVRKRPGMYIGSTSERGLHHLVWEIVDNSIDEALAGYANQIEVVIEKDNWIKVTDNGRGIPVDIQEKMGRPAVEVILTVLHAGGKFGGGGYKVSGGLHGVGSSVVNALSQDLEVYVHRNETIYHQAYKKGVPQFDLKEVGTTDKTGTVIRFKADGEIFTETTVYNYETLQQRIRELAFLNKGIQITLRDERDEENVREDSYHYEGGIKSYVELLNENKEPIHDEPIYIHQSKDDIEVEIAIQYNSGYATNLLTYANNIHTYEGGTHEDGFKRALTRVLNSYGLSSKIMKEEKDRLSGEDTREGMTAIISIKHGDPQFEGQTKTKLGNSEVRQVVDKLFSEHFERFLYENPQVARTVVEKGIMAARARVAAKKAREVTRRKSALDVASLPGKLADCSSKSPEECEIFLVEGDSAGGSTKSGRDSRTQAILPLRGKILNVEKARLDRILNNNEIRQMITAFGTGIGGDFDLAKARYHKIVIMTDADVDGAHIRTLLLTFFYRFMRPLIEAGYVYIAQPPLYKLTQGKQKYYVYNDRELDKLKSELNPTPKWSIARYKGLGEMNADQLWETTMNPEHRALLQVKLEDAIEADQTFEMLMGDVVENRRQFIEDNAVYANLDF
Chain of DNA gyrase (Staphylococcus aureus, UniProt P0A0K8+P20831) (P20831 whole entry): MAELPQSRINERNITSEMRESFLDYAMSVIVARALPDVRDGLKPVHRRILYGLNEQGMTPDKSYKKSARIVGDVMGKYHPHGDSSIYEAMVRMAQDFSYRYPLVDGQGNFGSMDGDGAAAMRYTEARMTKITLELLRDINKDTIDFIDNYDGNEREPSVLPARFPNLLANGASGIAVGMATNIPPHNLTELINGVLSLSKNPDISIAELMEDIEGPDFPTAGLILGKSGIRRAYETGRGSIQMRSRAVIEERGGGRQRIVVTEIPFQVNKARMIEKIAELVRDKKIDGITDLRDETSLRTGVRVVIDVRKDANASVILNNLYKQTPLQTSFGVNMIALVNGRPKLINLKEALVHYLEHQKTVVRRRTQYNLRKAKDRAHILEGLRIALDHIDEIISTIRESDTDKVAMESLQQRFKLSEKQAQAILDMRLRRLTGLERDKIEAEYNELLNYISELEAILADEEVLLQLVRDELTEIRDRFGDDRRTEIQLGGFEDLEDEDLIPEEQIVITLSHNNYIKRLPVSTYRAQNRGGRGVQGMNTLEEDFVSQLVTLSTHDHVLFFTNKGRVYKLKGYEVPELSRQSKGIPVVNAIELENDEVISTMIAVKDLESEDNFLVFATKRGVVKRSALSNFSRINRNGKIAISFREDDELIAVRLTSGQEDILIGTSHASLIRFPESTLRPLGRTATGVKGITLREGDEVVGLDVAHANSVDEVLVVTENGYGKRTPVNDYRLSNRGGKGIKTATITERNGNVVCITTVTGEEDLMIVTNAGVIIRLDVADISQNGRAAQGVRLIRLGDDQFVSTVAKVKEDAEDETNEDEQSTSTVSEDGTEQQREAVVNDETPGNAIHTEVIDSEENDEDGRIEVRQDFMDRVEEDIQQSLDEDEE

Staphylococcus aureus [6] = experiment: Antibacterial activity against Staphylococcus aureus ATCC 29213 assessed as inhibition of bacterial growth by broth microdilution method; format: functional
[7] = Inhibition of Escherichia coli DNA topoisomerase-IV relaxation plate assay
Pseudomonas aeruginosa = experiment: Antibacterial activity against Pseudomonas aeruginosa ATCC 27853 assessed as inhibition of bacterial growth by broth microdilution metho; format: functional
DNA gyrase [8] = target: DNA gyrase (Escherichia coli, UniProt P0AES4+P0AES6); experiment: Inhibition of Escherichia coli DNA gyrase by supercoiling plate assay; format: protein-complex assay
Enterococcus faecalis = experiment: Antibacterial activity against Enterococcus faecalis ATCC 29212 assessed as inhibition of bacterial growth by broth microdilution method; format: functional
Enterobacter cloacae = experiment: Antibacterial activity against Enterobacter cloacae subsp. cloacae ATCC 13047 assessed as inhibition of bacterial growth by broth microdilution method; format: functional
MCF7 = experiment: Cytotoxicity against human MCF7 cells assessed as cell viability at 50 uM incubated for 72 hrs by CellTiter 96 aqueous one solution reagent based MTS assay relative to control; format: functional; conditions: read-out: Activity
[9] = Metabolic stability in mouse liver microsomes assessed as half life at 1 uM preincubated for 10 mins followed by NADPH addition and measured after 5 to 60 mins by LC-MS/MS analysis; format: ADME, Microsome; conditions: time 15-70 min
[10] = Metabolic stability in human liver microsomes assessed as half life at 1 uM preincubated for 10 mins followed by NADPH addition and measured after 5 to 60 mins by LC-MS/MS analysis; format: ADME, Microsome; conditions: time 15-70 min
[11] = Metabolic stability in mouse liver microsomes assessed as intrinsic clearance at 1 uM preincubated for 10 mins followed by NADPH addition and measured after 5 to 60 mins by LC-MS/MS analysis; format: ADME, Microsome; conditions: time 15-70 min, read-out: CLH
[12] = Metabolic stability in human liver microsomes assessed as intrinsic clearance at 1 uM preincubated for 10 mins followed by NADPH addition and measured after 5 to 60 mins by LC-MS/MS analysis; format: ADME, Microsome; conditions: time 15-70 min, read-out: CLH
Escherichia coli [13] = experiment: Inhibition of Escherichia coli DNA topoisomerase-IV assessed as residual activity at 10 uM by relaxation plate assay relative to control

Cc1[nH]c(C(=O)Nc2ccc(-c3noc(=O)[nH]3)cc2NC2CCNCC2)c(Cl)c1Cl.Cl
MIC (Acinetobacter baumannii): > 64 µg/mL
MIC (Staphylococcus aureus [1]): > 64 µg/mL
MIC (Staphylococcus aureus [2]): > 64 µg/mL
MIC (Klebsiella pneumoniae): > 64 µg/mL
MIC (Enterococcus faecium): > 64 µg/mL
MIC (Escherichia coli [3]): > 64 µg/mL
Activity [4]: 101%
IC50 (DNA gyrase [5]): 249 nM
MIC (Staphylococcus aureus [6]): > 64 µg/mL
IC50 [7]: 1180 nM
MIC (Pseudomonas aeruginosa): > 64 µg/mL
IC50 (DNA gyrase [8]): 9.66 nM
MIC (Enterococcus faecalis): > 64 µg/mL
MIC (Enterobacter cloacae): > 64 µg/mL

Cc1[nH]c(C(=O)Nc2ccc(-c3nnn[nH]3)cc2N2CCCC(CN)C2)c(Cl)c1Cl.Cl (configuration not stated)
MIC (Acinetobacter baumannii): > 64 µg/mL
MIC (Staphylococcus aureus [1]): > 64 µg/mL
MIC (Staphylococcus aureus [2]): > 64 µg/mL
MIC (Klebsiella pneumoniae): 64 µg/mL
MIC (Enterococcus faecium): 16 µg/mL
MIC (Escherichia coli [3]): > 64 µg/mL
Activity [4]: 91%
IC50 (DNA gyrase [5]): 35 nM
MIC (Staphylococcus aureus [6]): 16 µg/mL
IC50 [7]: 60.3 nM
viability at 50 µM (MCF7): 117%
MIC (Pseudomonas aeruginosa): > 64 µg/mL
IC50 (DNA gyrase [8]): 2.16 nM
MIC (Enterococcus faecalis): 8 µg/mL
MIC (Enterobacter cloacae): > 64 µg/mL

Cc1[nH]c(C(=O)Nc2ccc(-c3noc(=O)[nH]3)cc2N2CCCC(N)C2)c(Cl)c1Cl.Cl (configuration not stated)
MIC (Acinetobacter baumannii): > 64 µg/mL
MIC (Staphylococcus aureus [1]): > 64 µg/mL
MIC (Staphylococcus aureus [2]): > 64 µg/mL
MIC (Klebsiella pneumoniae): 16 µg/mL
MIC (Enterococcus faecium): 8 µg/mL
MIC (Escherichia coli [3]): > 64 µg/mL
Activity [4]: 91%
IC50 (DNA gyrase [5]): 55.8 nM
MIC (Staphylococcus aureus [6]): > 64 µg/mL
IC50 [7]: 145 nM
viability at 50 µM (MCF7): 95%
MIC (Pseudomonas aeruginosa): > 64 µg/mL
IC50 (DNA gyrase [8]): 2.49 nM
MIC (Enterococcus faecalis): 8 µg/mL
MIC (Enterobacter cloacae): > 64 µg/mL

Cc1[nH]c(C(=O)Nc2ccc(-n3nn[nH]c3=O)cc2N2CCC(N)CC2)c(Cl)c1Cl.Cl
MIC (Acinetobacter baumannii): > 32 µg/mL
MIC (Staphylococcus aureus [1]): > 32 µg/mL
MIC (Staphylococcus aureus [2]): > 32 µg/mL
MIC (Klebsiella pneumoniae): > 32 µg/mL
MIC (Enterococcus faecium): > 32 µg/mL
MIC (Escherichia coli [3]): > 32 µg/mL
Activity [4]: 103%
IC50 (DNA gyrase [5]): 216 nM
MIC (Staphylococcus aureus [6]): > 32 µg/mL
IC50 [7]: 11500 nM
MIC (Pseudomonas aeruginosa): > 32 µg/mL
IC50 (DNA gyrase [8]): 3.96 nM
MIC (Enterococcus faecalis): > 32 µg/mL
MIC (Enterobacter cloacae): > 32 µg/mL

Cc1[nH]c(C(=O)Nc2ccc(-c3noc(=O)[nH]3)cc2N2CCCC2)c(Cl)c1Cl
MIC (Acinetobacter baumannii): > 64 µg/mL
MIC (Staphylococcus aureus [1]): 0.5 µg/mL (≈ 1.18 µM)
MIC (Staphylococcus aureus [2]): < 0.031 µg/mL
MIC (Klebsiella pneumoniae): > 64 µg/mL
half-life at 1 µM [9]: 2.1 h
MIC (Enterococcus faecium): 0.063 µg/mL (≈ 0.149 µM)
MIC (Escherichia coli [3]): > 64 µg/mL
half-life at 1 µM [10]: 1.31 h
microsomal CLint at 1 µM [11]: 11 µL/min/mg
Activity [4]: 99%
MIC (Staphylococcus aureus [6]): > 64 µg/mL
IC50 [7]: 2410 nM
viability at 50 µM (MCF7): 119%
MIC (Pseudomonas aeruginosa): > 64 µg/mL
IC50 (DNA gyrase [8]): 12.6 nM
MIC (Enterococcus faecalis): < 0.031 µg/mL
MIC (Enterobacter cloacae): > 64 µg/mL
microsomal CLint at 1 µM [12]: 17.6 µL/min/mg

Cc1[nH]c(C(=O)Nc2ccc(-c3noc(=O)[nH]3)cc2N2CCN(c3ccccc3)CC2)c(Cl)c1Cl
MIC (Acinetobacter baumannii): > 64 µg/mL
MIC (Staphylococcus aureus [1]): 0.063 µg/mL (≈ 0.123 µM)
MIC (Staphylococcus aureus [2]): 2 µg/mL (≈ 3.9 µM)
MIC (Klebsiella pneumoniae): > 64 µg/mL
half-life at 1 µM [9]: > 2.42 h
MIC (Enterococcus faecium): 4 µg/mL (≈ 7.79 µM)
MIC (Escherichia coli [3]): > 64 µg/mL
half-life at 1 µM [10]: > 2.42 h
microsomal CLint at 1 µM [11]: < 9.6 µL/min/mg
Activity [4]: 98%
MIC (Staphylococcus aureus [6]): 4 µg/mL (≈ 7.79 µM)
viability at 50 µM (MCF7): 68%
MIC (Pseudomonas aeruginosa): > 64 µg/mL
IC50 (DNA gyrase [8]): 109 nM
Activity (Escherichia coli [13]): 71%
MIC (Enterococcus faecalis): 0.125 µg/mL (≈ 0.243 µM)
MIC (Enterobacter cloacae): > 64 µg/mL
microsomal CLint at 1 µM [12]: < 9.6 µL/min/mg

Cc1[nH]c(C(=O)Nc2ccc(-n3nn[nH]c3=O)cc2N2Cc3ccccc3C2)c(Cl)c1Cl
MIC (Acinetobacter baumannii): > 64 µg/mL
MIC (Staphylococcus aureus [1]): > 64 µg/mL
MIC (Staphylococcus aureus [2]): > 64 µg/mL
MIC (Klebsiella pneumoniae): > 64 µg/mL
half-life at 1 µM [9]: > 2.42 h
MIC (Enterococcus faecium): 0.5 µg/mL (≈ 1.06 µM)
MIC (Escherichia coli [3]): > 64 µg/mL
half-life at 1 µM [10]: 1.33 h
microsomal CLint at 1 µM [11]: < 9.6 µL/min/mg
Activity [4]: 97%
MIC (Staphylococcus aureus [6]): 16 µg/mL (≈ 34 µM)
viability at 50 µM (MCF7): 89%
MIC (Pseudomonas aeruginosa): > 64 µg/mL
IC50 (DNA gyrase [8]): 111 nM
Activity (Escherichia coli [13]): 105%
MIC (Enterococcus faecalis): 0.25 µg/mL (≈ 0.532 µM)
MIC (Enterobacter cloacae): > 64 µg/mL
microsomal CLint at 1 µM [12]: 17.3 µL/min/mg

Cc1[nH]c(C(=O)Nc2ccc(-n3nn[nH]c3=O)cc2N2CC[C@H](NC(=O)OC(C)(C)C)C2)c(Cl)c1Cl
Activity [4]: 95%
IC50 (DNA gyrase [8]): 212 nM
Activity (Escherichia coli [13]): 72%

Cc1[nH]c(C(=O)Nc2ccc(-n3nn[nH]c3=O)cc2N2CC[C@H](N)C2)c(Cl)c1Cl.Cl
MIC (Acinetobacter baumannii): > 32 µg/mL
MIC (Staphylococcus aureus [1]): > 32 µg/mL
MIC (Staphylococcus aureus [2]): 64 µg/mL
MIC (Klebsiella pneumoniae): > 32 µg/mL
MIC (Enterococcus faecium): > 32 µg/mL
MIC (Escherichia coli [3]): > 32 µg/mL
Activity [4]: 108%
IC50 (DNA gyrase [5]): 121 nM
MIC (Staphylococcus aureus [6]): > 32 µg/mL
MIC (Pseudomonas aeruginosa): > 32 µg/mL
IC50 (DNA gyrase [8]): 4.9 nM
Activity (Escherichia coli [13]): 26%
MIC (Enterococcus faecalis): 64 µg/mL
MIC (Enterobacter cloacae): > 32 µg/mL

C[C@]12CC[C@H]3[C@@H](CCC4=CC(=O)CC[C@@]43C)[C@@H]1CC[C@@H]2O [TESTOSTERONE]
half-life at 1 µM [9]: 0.137 h
half-life at 1 µM [10]: 0.378 h
microsomal CLint at 1 µM [11]: 169 µL/min/mg
microsomal CLint at 1 µM [12]: 60.9 µL/min/mg

Cc1[nH]c(C(=O)Nc2ccc(C(=O)NS(C)(=O)=O)cc2N2CCOCC2)c(Cl)c1Cl
Activity [4]: 94%
IC50 (DNA gyrase [8]): 243 nM
Activity (Escherichia coli [13]): 37%

O=C(O)Cc1ccccc1Nc1c(Cl)cccc1Cl [DICLOFENAC]
half-life at 1 µM [9]: 0.813 h
microsomal CLint at 1 µM [11]: 28.4 µL/min/mg
microsomal CLint at 1 µM [12]: 238 µL/min/mg

Cc1[nH]c(C(=O)Nc2ccc(-c3noc(=O)[nH]3)cc2N2CCCC(CN)C2)c(Cl)c1Cl.Cl (configuration not stated)
MIC (Acinetobacter baumannii): > 64 µg/mL
MIC (Staphylococcus aureus [1]): 4 µg/mL
MIC (Staphylococcus aureus [2]): 2 µg/mL
MIC (Klebsiella pneumoniae): 2 µg/mL
MIC (Enterococcus faecium): 2 µg/mL
MIC (Escherichia coli [3]): > 64 µg/mL
Activity [4]: 93%
IC50 (DNA gyrase [5]): 24.1 nM
MIC (Staphylococcus aureus [6]): 4 µg/mL
IC50 [7]: 41.8 nM
viability at 50 µM (MCF7): 88%
MIC (Pseudomonas aeruginosa): > 64 µg/mL
IC50 (DNA gyrase [8]): 3.19 nM
MIC (Enterococcus faecalis): 0.25 µg/mL
MIC (Enterobacter cloacae): > 64 µg/mL

Cc1[nH]c(C(=O)Nc2ccc(-c3noc(=O)[nH]3)cc2N2CCNCC2)c(Cl)c1Cl.Cl
MIC (Acinetobacter baumannii): > 64 µg/mL
MIC (Staphylococcus aureus [1]): > 64 µg/mL
MIC (Staphylococcus aureus [2]): > 64 µg/mL
MIC (Klebsiella pneumoniae): > 64 µg/mL
MIC (Enterococcus faecium): > 64 µg/mL
MIC (Escherichia coli [3]): > 64 µg/mL
Activity [4]: 101%
MIC (Staphylococcus aureus [6]): > 64 µg/mL
IC50 [7]: 3150 nM
MIC (Pseudomonas aeruginosa): > 64 µg/mL
IC50 (DNA gyrase [8]): 6.07 nM
MIC (Enterococcus faecalis): > 64 µg/mL
MIC (Enterobacter cloacae): > 64 µg/mL

— ChEMBL document CHEMBL6071157, “Improved N-phenylpyrrolamide inhibitors of DNA gyrase as antibacterial agents for high-priority bacterial strains” (Eur J Med Chem, 2024)
